Reference: patent US6716809B1, “Mage-A3 peptides presented by HLA class molecules” (priority 1997, dated 2004)

Tested on: CD4+ clone 436/B6.37 (B6/37)
Assay: IFN-γ/TNF production by CD4+ clone B6/37 (clone 37) stimulated with peptide- or protein-pulsed EBV-B cells
Type: cell-based, human
Details: for IFN-γ production by clone 37: autologous LB 1555 EBV-B cells; for IFN-γ production by clone B6/37, truncated peptides: autologous EBV-B cells pulsed with truncated peptides (FIG. 8)
Procedure: The microcultures that contained proliferating CD4^+ T cells were assessed around 35 days after the start of the culture for their capacity to produce TNF and/or IFN-γ when stimulated with autologous EBV-B cells pulsed with the His-MAGE-A3 protein. Autologous EBV-B cells (500,000/ml) were incubated for 18-20 hours at 37° C. in the presence of 20 μg/ml of His-MAGE-A3 protein, or Ovalbumin (Sigma) as a negative control. EBV-B cells referred to herein are B cells which were immortalized with Epstein Barr virus. The EBV-B cells were prepared according to art-standard procedures. Protein-pulsed EBV-B cells were washed and added at 5,000 per round-bottomed microwell to 2,500 CD4^+ T lymphocytes in 150 μl of complete Iscove's medium supplemented with L-glutamine, L-arginine, L-asparagine, 10% human serum and IL-2 (25 U/ml). After 18-20 hours, supernatants were harvested and assessed for TNF content by testing the cytotoxic effect of the supernatants on TNF-sensitive WEHI 164 clone 13 cells as previously described (Espevik and Nissen-Meyer, J. Immunol. Methods 95:99-105, 1986) in a MTT colorimetric assay as previously described (Hansen et al., J. Immunol. Methods 119:203-210, 1989; Traversari et al., Immunogenetics 35:145-152, 1992). IFN-γ production was measured using an ELISA assay developed in our laboratory (see below) with reagents from Medgenix Diagnostics-Biosource (Fleurus, Belgium). Inhibition with mAbs W6/32 (anti-HLA class I) or 2B6 (anti-HLA-DR) was performed by addition of a 1/20 dilution of ascites during the experiment. Cytokine secretion in response to autologous EBV-B cells pulsed with MAGE-A3 was considered significant if it was at least twofold above the background response of T cells to EBV-B cells pulsed with ovalbumin, and if it exceeded 500 pg of IFN-γ or 50 pg/ml of TNF per ml.
In order to identify the MAGE-A3 peptides recognized by these CD4^+ clones, 16 amino acid peptides, corresponding to parts of the MAGE-A3 protein sequence were synthesized, loaded on the autologous EBV-B cells and tested for recognition (FIGS. 4 and 5). Peptides were synthesized using F-moc for transient NH2-terminal protection and were characterized using mass spectrometry. […] Lyophilized synthetic peptides were dissolved in DMSO (Merck) and used at a final concentration of 500 μM, 50 μM or 5 μg/ml. EBV-B cells (5,000 per round-bottomed microwell) were incubated 2 hours at 37° C., 8% CO2 in the presence of the different peptides, the indicated concentrations representing the peptide concentration during the incubation step. CD4^+ clones were then added at 2,500 cells per well. Assay medium was Iscove's medium supplemented with L-glutamine, L-arginine, L-asparagine, 10% human serum and IL-2 (25 U/ml). After 18-20 hours, supernatants were harvested and assessed for TNF-α and/or IFN-γ secretion. IFN-γ production was measured using an ELISA test (20-4000 pg/ml) developed in the laboratory with reagents from Medgenix Diagnostics-Biosource (Fleurus, Belgium).
To further define the HLA-restriction element utilized by clone B6/37, additional EBV-B cell lines were used for peptide presentation as described above (FIG. 7).
Unlike HLA-class I-restricted peptides, class II-restricted peptides usually vary in length and tolerate extensions at both the amino and carboxy termini, because they are not fixed by their ends in the groove. It is therefore difficult to define precisely the length of the antigenic peptide. Therefore a large number of MAGE-A3 peptides were tested at different concentrations (Tables IV and V). […] 2500 cells of clone 37 were then cocultured for 20 h in round-bottomed microwells with 5000 peptide-pulsed cells. IFN-γ released in the supernatant of the cocultures was measured in an ELISA assay. The experiments were performed in triplicate.

[1] = peptide concentration 100 ng/ml
[2] = peptide concentration 300 ng/ml
[3] = peptide concentration 1000 ng/ml

Substance | IFN-γ production by clone 37 (peptide concentration 1 ng/ml) | IFN-γ production by clone 37 (peptide concentration 3 ng/ml) | IFN-γ production by clone 37 (peptide concentration 10 ng/ml) | IFN-γ production by clone 37 (peptide concentration 30 ng/ml) | IFN-γ production by clone 37 [1] | IFN-γ production by clone 37 [2] | IFN-γ production by clone 37 [3] | IFN-γ production by clone B6/37, truncated peptides | recognition of short peptide by clone 37 (conclusion from Table IV)
AELVHFLLLKYRARE (listed as Homo sapiens) | 38 pg/mL | 230 pg/mL | 235 pg/mL | 1473 pg/mL | 3837 pg/mL | >4000 pg/mL | >4000 pg/mL |  | 
VHFLLLKYRA (listed as Homo sapiens) [MAGE-A3117-126] |  |  |  |  |  |  |  | reduced amounts | 
MAGE-A3116-126: shortened MAGE-A3 peptide, residues 116-126 (LVHFLLLKYRA; listed as Homo sapiens) |  |  |  |  |  |  |  | reduced amounts | 
VAELVHFLLLKYRARE (listed as Homo sapiens) | 30 pg/mL | 300 pg/mL | 376 pg/mL | 1647 pg/mL | >4000 pg/mL | >4000 pg/mL | >4000 pg/mL |  | 
VAELVHFLLLKYRAR (listed as Homo sapiens) | 146 pg/mL | 262 pg/mL | 779 pg/mL | 2963 pg/mL | >4000 pg/mL | >4000 pg/mL | >4000 pg/mL |  | 
MAGE-A3118-126: shortened MAGE-A3 peptide, residues 118-126 |  |  |  |  |  |  |  | did not induce the production of significant amounts | 
ELVHFLLLKYRAR (listed as Homo sapiens) | 47 pg/mL | 192 pg/mL | 333 pg/mL | 1899 pg/mL | 3633 pg/mL | >4000 pg/mL | >4000 pg/mL |  | 
ELVHFLLLKYRARE (listed as Homo sapiens) | 25 pg/mL | 160 pg/mL | 166 pg/mL | 1087 pg/mL | 3095 pg/mL | >4000 pg/mL | >4000 pg/mL |  | 
VAELVHFLLLKYRA (listed as Homo sapiens) | 7 pg/mL | 179 pg/mL | 87 pg/mL | 648 pg/mL | 2534 pg/mL | >4000 pg/mL | >4000 pg/mL |  | 
AELVHFLLLKYRAR (listed as Homo sapiens) | 151 pg/mL | 272 pg/mL | 802 pg/mL | 2862 pg/mL | >4000 pg/mL | >4000 pg/mL | >4000 pg/mL |  | well recognized
ELVHFLLLKYRA (listed as Homo sapiens) [MAGE-A3115-126] |  |  |  |  |  |  |  | induced significant production | 
AELVHFLLLKYRA (listed as Homo sapiens) | 134 pg/mL | 139 pg/mL | 620 pg/mL | 2523 pg/mL | >4000 pg/mL | >4000 pg/mL | >4000 pg/mL |  | 
